Test results as given in US10130647B2, “Use of ginsenoside M1 for preventing or treating silicosis” (WELLHEAD […]., priority 2015, dated 2018).

Legend:
[1] = test system: Male C57BL/6 mice; assay: Silica crystal-induced silicosis in mice, BALF analysis; format: in vivo, mouse; settings: 60 mg/kg oral gavage daily day 0, 1, 2
Experimental: In FIG. 9-12, the animal experiments were conducted in accordance with the guidelines of the National Institutes of Health and approved by the Institutional Animal Care and Use Committee of National Ilan University. Male C57BL/6 mice were purchased from the National Laboratory Animal Center (Taipei, Taiwan). The animals were provided a chow diet and water ad libitum under conditions of 22-24° C., 40-70% relative humidity, and a 12 h light-dark cycle. Ginsenoside M1 (60 mg/kg body weight) was oral administered daily by gavage at day 0, 1 and 2. Silicosis in mice was induced by intratracheally exposed to 40 μl aqueous suspensions of 200 μg of silica crystals in PBS daily at day 0, 1 and 2 (n=6). Each day, mice exposed to silica crystals 4 h after Ginsenoside M1 administration. Control mice received PBS. After 4 h of the last silica crystals exposure, all mice were sacrificed using neck breaking, and a bronchoalveolar lavage was carried out by repeatedly instillating and withdrawing 1 ml of 1% BSA/PBS solution three consecutive times. The levels of IL-1β and IL-6 in the bronchoalveolar lavage fluid (BALF) were measured by ELISA. The total cell number in the BALF was counted by a hematocytometer and protein concentration in the BALF was determined by protein assay dye.
(§1) For ELISA assay, 50 μl of biotinylated antibody reagent and 50 μl of culture medium were added to an anti-IL-1β, TNF-α or IL-6 precoated stripwell plate, and incubated at room temperature for 2 h. After washing the plate three times with washing buffer, 100 μl of diluted streptavidin-HRP (horseradish peroxidase) concentrate was added to each well and incubated at room temperature for 30 min. The washing process was repeated; then 100 μl of a premixed tetramethylbenzidine substrate solution was added to each well and developed at room temperature in the dark for 30 min Following the addition of 100 μl of provided stop solution to each well to stop the reaction, the absorbance of the plate was measured by a microplate reader at a 450 nm wavelength.

[2] = test system: mouse J774A.1 macrophages; assay: LPS-induced NLRP3 and proIL-1β expression in J774A.1 macrophages (Western blot); format: cell-based; settings: M1 30 min, then 1 μg/ml LPS 6 h, FIG. 2
Experimental: The levels of NLRP3 and […] in the cell lysates were measured by Western blot.
In FIG. 2, J774A.1 macrophages (2×10^6 cells/2 ml medium/dish) were incubated for 30 min with or without Ginsenoside M1, then for 6 h with or without 1 μg/ml LPS in the continued presence or absence of Ginsenoside M1. The levels of NLRP3 and proIL-1β in the cell lysates were measured by Western blot. In brief, After treatment, the cells were collected and lysed at 4° C. in lysis buffer (25 mM Tris-HCl, pH 7.5, 100 mM NaCl, 2.5 mM EDTA, 2.5 mM EGTA, 20 mM NaF, 1 mM Na3VO4, 20 mM sodium β-glycerophosphate, 10 mM sodium pyrophosphate, 0.5% Triton X-100) containing protease inhibitor cocktail (Sigma, St. Louis, Mo.), then the whole cell lysate was separated by SDS-PAGE and electrotransferred to a PVDF membrane. The membranes were incubated for 1 h at room temperature in blocking solution (5% nonfat milk in phosphate buffered saline with 0.1% Tween 20), then were incubated for 2 h at room temperature with NLRP3 or proIL-1β antibody in blocking solution. […]
J774A.1 macrophages were incubated for 30 min with or without Ginsenoside M1, then for 6 h with or without 1 μg/ml LPS in the continued presence or absence of Ginsenoside M1. The levels of NLRP3 and proIL-1β in the cell lysates were measured by Western blot.

[3] = test system: mouse J774A.1 macrophages; assay: Silica crystal-induced IL-1β production in LPS-treated J774A.1 macrophages (ELISA); format: cell-based; settings: M1 30 min, then 1 μg/ml LPS, then 200 μg/ml silica crystal 24 h, FIG. 1, p<0.001 vs silica crystals alone
Experimental: The levels of IL-1β in the culture medium were measured by ELISA. *** indicates a significant difference at the level of p<0.001 compared to […].
In FIG. 1, J774A.1 macrophages (1×10^5 cells/500 μl medium/well) were incubated for 30 min with or without Ginsenoside M1, then for 2 h with or without 1 μg/ml LPS (from Escherichia coli 0111:B4, purchased from Sigma, St. Louis, Mo.) in the continued presence or absence of Ginsenoside M1, and then for 24 h with or without 200 μg/ml silica crystal (purchased from InvivoGen, San Diego, Calif.). The levels of IL-1β in the culture medium were measured by ELISA.
as §1, with “wavelength. […]” for “wavelength.”

[4] = test system: human THP-1 macrophages; assay: Silica crystal-induced cytokine production in THP-1 macrophages, Ginsenoside M1 added before LPS (ELISA); format: cell-based; settings: M1 30 min, then 1 μg/ml LPS 5 h, then 200 μg/ml silica crystal 24 h
Experimental: The levels of IL-1β in the culture medium were measured by ELISA. ** indicates a significant difference at the level of p<0.01 compared to silica crystal alone.
The levels of TNF-α in the culture medium were measured by ELISA. ** and *** indicates a significant difference at the level of p<0.01 and p<0.001, respectively compared to silica crystal alone.
The levels of IL-6 in the culture medium were measured by ELISA. * and *** indicates a significant difference at the level of p<0.05 and p<0.001, respectively compared to silica crystal alone.
(§2) The mouse macrophages cell line J774A.1 and human monocytic leukemia cell line THP-1 was obtained from the American Type Culture Collection (Rockville, Md.) and cultured in RPMI 1640 medium supplemented with 10% heat-inactivated fetal bovine serum (FBS) and 2 mM L-glutamine (all from Life Technologies, Carlsbad, Calif.) at 37° C. in a 5% CO2 incubator. To induce monocyte-to-macrophage differentiation, THP-1 cells were cultured for 48 h in RPMI-1640 medium supplemented with 100 nM phorbol 12-myristate 13-acetate (Sigma-Aldrich).
In FIG. 3-5, THP-1 macrophages (1×10^5 cells/500 μl medium/well) were incubated for 30 min with or without Ginsenoside M1, then for 5 h with or without 1 μg/ml LPS in the continued presence or absence of Ginsenoside M1, and then for 24 h with or without 200 μg/ml silica crystal (purchased from InvivoGen, San Diego, Calif.). The levels of IL-1β (FIG. 3), TNF-α (FIG. 4) and IL-6 (FIG. 5) in the culture medium were measured by ELISA.
as §1, with “After washing the plate three times with washing buffer, 100 μl of diluted streptavidin-HRP (horseradish peroxidase) concentrate was added to each well and incubated at room temperature for 30 min.” left out, “wavelength. […]” for “wavelength.”

[5] = test system: LPS-primed THP-1 macrophages; assay: Silica crystal-induced cytokine production in LPS-primed THP-1 macrophages, Ginsenoside M1 added after LPS priming (ELISA); format: cell-based, human; settings: THP-1 primed 5 h with 1 μg/ml LPS, then M1 30 min, then 200 μg/ml silica crystal 24 h
Experimental: The levels of IL-1β in the culture medium were measured by ELISA. ** and *** indicates a significant difference at the level of p<0.01 and p<0.001, respectively compared to silica crystal alone.
The levels of TNF-α in the culture medium were measured by ELISA. ** indicates a significant difference at the level of p<0.01 compared to silica crystal alone.
The levels of IL-6 in the culture medium were measured by ELISA. *** indicates a significant difference at the level of p<0.001 compared to silica crystal alone.
as §2
In FIG. 6-8, THP-1 macrophages (1×10^5 cells/500 μl medium/well) were incubated for 5 h with or without 1 μg/ml LPS, then for 30 min with or without Ginsenoside M1 in the continued presence or absence of LPS, and then for 24 h with or without 200 μg/ml silica crystal. The levels of IL-1β (FIG. 6), TNF-α (FIG. 7) and IL-6 (FIG. 8) in the culture medium were measured by ELISA.
as §1, with “After washing the plate three times with washing buffer, 100 μl of diluted streptavidin-HRP (horseradish peroxidase) concentrate was added to each well and incubated at room temperature for 30 min.” left out, “wavelength. […]” for “wavelength.”

## 20-O-β-D-glucopyranosyl-20(S)-protopanaxadiol [Ginsenoside M1]
[1]; intratracheal 200 μg silica crystals 4 h after dosing, FIG. 9, p<0.001
  silica crystal-induced IL-1β production in the murine BALF: significantly reduced
[1]; intratracheal 200 μg silica crystals 4 h after dosing, FIG. 10, p<0.001
  silica crystal-induced IL-6 production in the murine BALF: significantly reduced
[1]; intratracheal 200 μg silica crystals, hematocytometer, FIG. 12, p<0.01
  silica crystal-induced increase of total cell number in BALF: significantly inhibited
[1]; intratracheal 200 μg silica crystals, protein assay dye, FIG. 11, p<0.001
  silica crystal-induced increase of total protein concentration in BALF: significantly inhibited
[2]
  level of NLRP3 in the cell lysates: reduced
  level of proIL-1β in the cell lysates: reduced
[3]
  IL-1β secretion in the culture medium: reduced
[4]; FIG. 3, p<0.01
  IL-1β production: reduced
[4]; FIG. 4, p<0.01 and p<0.001
  TNF-α production: reduced
[4]; FIG. 5, p<0.05 and p<0.001
  IL-6 production: reduced
[5]; FIG. 6, p<0.01 and p<0.001
  IL-1β production: reduced
[5]; FIG. 7, p<0.01
  TNF-α production: reduced
[5]; FIG. 8, p<0.001
  IL-6 production: reduced
